# Experiments:
# Type in all cases: cell-based, human
# [1] = test system: MYC mRNA expression in SU-DHL-4 cells; test: Suppressive effect on MYC mRNA expression (Test Example 2); settings: test compound 100 nmol/L, 6 hours, qRT-PCR corrected by ACTB, GAPDH; for inhibition at 0.1 µM: Homo sapiens, HPRT1, read-out: Suppression Rate of MYC mRNA Expression (%)
# Description: The cells were passaged twice a week at a volume of 20-40 mL so as to maintain a cell concentration of 1×10^6 cells/mL or less. The cultured SU-DHL-4 cells were seeded at 6×10^5 cells/well in a transparent 6-well plate (Code No. 140675, Thermo Fisher Scientific). After seeding, the cells were precultured at 37° C. in a carbon dioxide gas incubator for 18 to 25 hours. […] At this time, the final concentration of DMSO was adjusted to be 0.1 vol %. After adding the test compound, the cells were cultured at 37° C. in a carbon dioxide gas incubator for 6 hours. Then, the cells were collected by centrifugation and used for extraction of mRNA. mRNA extraction from cells was performed using Maxwell® 16 LEV simplyRNA Purification Kits (Code No. AS1270, Promega). The mRNA recovery protocol was performed according to the manufacturer's recommended protocol attached to the kit. […] The cDNA conversion was performed, according to the manufacturer's recommended protocol attached to the kit, in 0.020 mL of the reaction solution, and GeneAmp® PCR System 9700 (Applied Biosystems) was used. The cDNA-converted sample was diluted 10-fold by adding 0.180 mL of RNase Free Water (Code No. 10977-023, Thermo Fisher Scientific) and used for quantitative real-time polymerase chain reaction (qRT-PCR). For the calibration curve of qRT-PCR, 0.08 mL of RNase Free Water was added to a cDNA sample using DMSO as a test compound for 5-fold dilution. Further, two 5-fold dilutions were prepared stepwise, and these three samples were used as the calibration curve samples. The following reagents were used for qRT-PCR: TaqMan Gene Expression Assays, Inventoried (Primer probe: Code No. 4331182, Thermo Fisher Scientific, Assay ID: (i) MYC: Hs00153408_m1, (ii) ACTB: Hs01060665_g1, (iii) GAPDH: Hs04420697_g1, (iv) HPRT1: […] Universal PCR Master Mix, no AmpEraseR UNG (Master Mix: Code No. 4367846, Thermo Fisher Scientific). Primer probe (0.001 mL), Master Mix (0.010 mL), water (0.004 mL) and the diluted cDNA sample (0.005 mL) were mixed, and qRT-PCR analysis was performed. For qRT-PCR analysis, QuantStudio 7 Flex (Thermo Fisher Scientific) or 7500 Fast Real-Time PCR (Applied Biosystems) was used to measure in Fast mode and analyze. […] Corrected MYC expression=A/B • A: MYC expression level • B: Geometric mean of expression levels of ACTB, GAPDH and HPRT1 Using the corrected values, the suppression rate of MYC expression for the wells to which the test compound was not added was calculated by the following formula. […] Corrected MYC expression level in a well containing test compound • D: Corrected MYC expression level in a well to which test compound was not added
# DCAF16 KO SU-DHL-4 cells = test: Inhibitory effect on cell viability using SU-DHL-4 DCAF16 knock out (KO) cell line (Test Example 6)
# Description: The human DLBCL cell line SU-DHL-4 was purchased from DSMZ. SU-DHL-4 was passaged using RPMI1640 medium containing 10 vol % FBS. After the Cas9 gene was introduced, the cells were cultured in the above medium containing 0.01 mg/mL blasticidin (InvivoGen, Cat No. ant-bl-1). After introduction of sgRNA, the cells were cultured in the above medium containing 0.0001 mg/mL puromycin dihydrochloride (SIGMA, Cat No. P9020-10 ML). The culture conditions were 37° C. and 5% CO2.
# Edit-R Lentiviral hEF1α-Blast-Cas9 Nuclease Particles (Cat No. VCAS10126) was used as a lentivirus for expressing Cas9 in human cell lines. Three types of Edit-R Human DCAF16 Lentiviral sgRNA (Cat No. VSGH10142-246568260; DNA target sequence […] (SEQ ID NO: 1), Cat No. VSGH10142-246568262; DNA target sequence […] (SEQ ID NO: 2) and Cat No. VSGH10142-246568263; DNA target sequence […] (SEQ ID NO: 3)) were used as lentiviruses for introducing DCAF16 sgRNA. As a control, Edit-R Lentiviral sgRNA Non-targeting Control #1 (Cat No. VSGC10215) was used. All lentiviruses were purchased from Dharmacon and stored at −80° C. until use.
# SU-DHL-4 was suspended at 4×10^5 cells/mL in RPMI 1640 without FBS, 0.25 mL of the suspension was added to a 24-well plate, and the cells were cultured overnight. The next day, 0.003 mL of virus particles of Edit-R Lentiviral hEF1α-Blast-Cas9 Nuclease Particles was added. After culturing in a CO2 incubator for 4 hours, RPMI 1640 containing 0.75 mL of 10 vol % FBS was added. After culturing in a CO2 incubator for about 48 hours, the medium was replaced with RPMI1640 containing 10 vol % FBS, and the cells were cultured in a CO2 incubator. Four days after infection, the medium was replaced with a medium containing 0.01 mg/mL blasticidin (InvivoGen, Cat No. ant-bl-1). Then, the cells were passaged once every 2 to 3 days and thus twice in total (that is, cultured for 1 week) to obtain SU-DHL-4/Cas9, which is a Cas9-introduced SU-DHL-4 cell line.
# (6) sgRNA infection SU-DHL-4/Cas9 was suspended at 4×10^5 cells/mL in RPMI 1640 without FBS, 0.25 mL of the suspension was added to a 24-well plate, and the cells were cultured overnight. The next day, a total of 4 types of sgRNA virus particles, 1 type of Control and 3 types targeting DCAF16 were added to the respective wells by 0.03 mL. After culturing in a CO2 incubator for 5 hours, RPMI 1640 containing 0.75 mL of 10 vol % FBS was added.
# After culturing in a CO2 incubator for about 48 hours, the medium was replaced with RPMI1640 containing 10 vol % FBS, and the cells were cultured in a CO2 incubator. Four days after infection, the medium was replaced with a medium supplemented with 0.01 mg/mL puromycin dihydrochloride (SIGMA, Cat No. P9020-10 ML). Then, the cells were passaged once or twice a week for 2 weeks, and a cell stock was prepared using CELLBANKER I plus (Takara Bio, Cat No. CB-021). Cell line stock was stored at −80° C. Using Edit-R Lentiviral sgRNA Non-targeting Control #1, the Negative Control sequence was introduced into the SU-DHL-4 cell line, which was referred to as SU-DHL-4 NC strain, and using Edit-R Human DCAF16 Lentiviral sgRNA, […] sequence (SEQ ID NO: 1) was introduced into the SU-DHL-4 cell line, which was referred to as SU-DHL-4 DCAF16 KO1 strain, […] sequence (SEQ ID NO: 2) was introduced into the SU-DHL-4 cell line, which was referred to as SU-DHL-4 DCAF16 KO2 strain, and […] sequence (SEQ ID NO: 3) was introduced into the SU-DHL-4 cell line, which was referred to as SU-DHL-4 DCAF16 KO 3 strain.
# The cultured DCAF16 KO SU-DHL-4 cells were seeded at 2000 cells/well in a transparent 384-well plate (Code No. 781182, Greiner bio-one). After seeding, the cells were pre-cultured at 37° C. in a carbon dioxide gas incubator for 18 to 25 hours. […]
# SU-DHL-4 cells = test: Inhibitory effect on cell viability in SU-DHL-4 cell line (Test Example 1); settings: SU-DHL-4 cells, 72 hours, Cell Counting Kit-8; concentration showing 90% inhibition of cell viability; read-out: SU-DHL-4 Cell Viability Inhibition Rate IC90
# Method in brief: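 SU-DHL-4 cells were grown at 37° C. under 5% CO2 in RPMI1640 with 10 vol % heat-inactivated FBS plus penicillin/streptomycin, seeded and precultured for 18 to 25 hours, then exposed to test compound at 0.1 vol % DMSO for 72 hours. Viability was read with Cell Counting Kit-8 by absorbance at 450 nm.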
smiles,measurement,setting,value
"CCC(=O)N1c2ccccc2[C@H](Nc2ccc(NC(=O)[C@H](C)NC(=O)c3ccc(N[C@@H]4C[C@H](C)N(C(=O)CC)c5ccccc54)cc3)cc2)C[C@@H]1C (relative stereo) [Compound 2d, 4-{[(2S,4R)-2-Methyl-1-propionyl-1,2,3,4-tetrahydroquinolin-4-yl]amino}-N-{(S)-1-[(4-{[(2S*,4R*)-2-methyl-1-propionyl-1,2,3,4-tetrahydroquinolin-4-yl]amino}phenyl)amino]-1-oxopropan-2-yl}benzamide]",inhibition at 0.1 µM,[1],80%
"CCC(=O)N1c2ccccc2[C@H](Nc2ccc(NC(=O)CNC(=O)C(F)=C3CCC(N[C@@H]4C[C@H](C)N(C(=O)CC)c5ccccc54)CC3)cc2)C[C@@H]1C (relative stereo) [Compound 15k, 2-Fluoro-2-(4-(((2S*,4R*)-2-methyl-1-propionyl-1,2,3,4-tetrahydroquinolin-4-yl)amino)cyclohexylidene)-N-(2-((4-(((2S,4R)-2-methyl-1-propionyl-1,2,3,4-tetrahydroquinolin-4-yl)amino)phenyl)amino)-2-oxoethyl)acetamide]",inhibition at 0.1 µM,[1],97.4%
"CCC(=O)N1c2ccccc2[C@H](Nc2ccc(NC(=O)CCCC(=O)Nc3ccc(N[C@@H]4C[C@H](C)N(C(=O)CC)c5ccccc54)cc3)cc2)C[C@@H]1C (relative stereo) [Compound 4a, N^1,N^5-bis(4-{[(2S*,4R*)-2-Methyl-1-propionyl-1,2,3,4-tetrahydroquinolin-4-yl]amino}phenyl)glutaramide]",inhibition at 0.1 µM,[1],98.4%
same,Activity Attenuation Ratio,DCAF16 KO SU-DHL-4 cells; (SU-DHL-4 DCAF16 KO IC50)/(SU-DHL-4 WT IC50),361
same,IC50,"DCAF16 KO SU-DHL-4 cells; Homo sapiens, DCAF16 KO SU-DHL-4 cells, 72 hours, Cell Counting Kit-8, 50% inhibition of cell viability",75.8 nM
CCC(=O)N1c2ccccc2[C@H](Nc2ccc(CCC(=O)NCC3(NC4CCC(N[C@@H]5C[C@H](C)N(C(=O)CC)c6ccccc65)CC4)COC3)cc2)C[C@@H]1C (stereo partly shown) [Compound 7h],Suppression Rate of MYC mRNA Expression (%),[1]; HPRT1,97.5%
same,IC90,SU-DHL-4 cells,5.47 nM

# — patent US20220378923A1, “BET DEGRADER” (KYOWA KIRIN CO., LTD., priority 2019, published 2022)
